This is an account of results in ChEMBL document CHEMBL1124082, “Synthesis, intramolecular hydrogen bonding, and biochemical studies of clitocine, a naturally occurring exocyclic amino nucleoside” (J Med Chem, 1988).

Assay [1] deals with T1, Adenosine kinase (Homo sapiens, UniProt P55263). In words: Inhibition of adenosine kinase from undialyzed W1-L2 lysate (0-50 uM).
Assay [2] deals with T1, Adenosine kinase. In words: Binding affinity towards adenosine kinase.
A further assay has as its system L1210. Kind of assay: In vitro inhibition of L1210 cells. Particulars: Mus musculus, read-out: ID50 (the source's name). Format: functional.
Assay [3] in a line: Inhibition of growth of human B lymphoblast derived W1-L2 cells. Format: functional. Particulars: WIL2, read-out: ID50 (the source's name).

Each structure is given as a SMILES string.

T1 sequence (P55263 whole entry): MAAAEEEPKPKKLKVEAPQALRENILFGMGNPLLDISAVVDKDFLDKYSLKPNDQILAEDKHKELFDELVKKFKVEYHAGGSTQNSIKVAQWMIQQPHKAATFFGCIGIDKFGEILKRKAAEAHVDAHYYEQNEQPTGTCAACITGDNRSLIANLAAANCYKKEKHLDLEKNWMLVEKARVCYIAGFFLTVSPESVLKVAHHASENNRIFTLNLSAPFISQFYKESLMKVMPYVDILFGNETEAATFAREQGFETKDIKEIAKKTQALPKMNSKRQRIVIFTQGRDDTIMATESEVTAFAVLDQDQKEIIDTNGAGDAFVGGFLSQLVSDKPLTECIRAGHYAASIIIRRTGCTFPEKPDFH

In general, Ki refers to a dissociation constant, usually derived from enzyme kinetics or from competition with a known ligand. `Nc1ncnc(N[C@@H]2O[C@H](CO)[C@@H](O)[C@H]2O)c1[N+](=O)[O-]`: the Ki on Adenosine kinase [1] came to 3 µM; on Adenosine kinase [2], 0.3 µM. For the same compound, the IC50 (in the assay on L1210; in assay [3]) was 0.03 µM in each case.
